Data reported in publication doi:10.64898/2025.12.04.692444v1, “Calcium Dependent Protein Kinase 3 is not essential for the asexual replication of Plasmodium falciparum” (biorxiv, 2025).

What was measured:
[1] = target: T1, PfCDPK3 (full-length recombinant CDPK3) (Plasmodium falciparum, UniProt Q9NJU9); test: ADP-Glo luminescence kinase assay; type: biochemical; conditions: MBP as exogenous substrate; 100 µM ATP; 5 mM CaCl2; 20 mM MgCl2; 40 mM Tris-Cl pH 7.5; 30 °C, 1 h
T1 construct: some truncated fragments
T1 sequence (Q9NJU9 1-562): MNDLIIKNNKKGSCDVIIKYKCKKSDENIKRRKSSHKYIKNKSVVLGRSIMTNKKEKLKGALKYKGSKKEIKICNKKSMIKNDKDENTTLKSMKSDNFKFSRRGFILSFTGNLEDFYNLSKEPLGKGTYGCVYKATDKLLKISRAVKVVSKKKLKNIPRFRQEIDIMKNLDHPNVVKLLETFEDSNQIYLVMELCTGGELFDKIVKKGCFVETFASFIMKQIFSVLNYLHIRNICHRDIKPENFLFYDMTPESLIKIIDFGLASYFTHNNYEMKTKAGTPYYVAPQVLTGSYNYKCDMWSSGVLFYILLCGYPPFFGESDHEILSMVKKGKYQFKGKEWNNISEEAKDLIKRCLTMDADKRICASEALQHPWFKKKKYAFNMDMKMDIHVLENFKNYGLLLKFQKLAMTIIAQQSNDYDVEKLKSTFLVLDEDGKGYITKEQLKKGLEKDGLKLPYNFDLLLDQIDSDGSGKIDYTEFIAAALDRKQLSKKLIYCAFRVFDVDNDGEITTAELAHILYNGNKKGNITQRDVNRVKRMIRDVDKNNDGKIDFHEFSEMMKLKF

[2] = target: T1, PfCDPK3 (full-length recombinant CDPK3); test: semi-synthetic epitope tagging: thiophosphorylation, PNBM alkylation, anti-thiophosphate ester Western blot; type: biochemical; conditions: GST as exogenous substrate; 100 µM ATPγS; 5 mM CaCl2; 50 mM MgCl2; 50 mM Tris; 30 °C, 2 h

Compound	ADP-Glo luminescence kinase assay [1]	semi-synthetic epitope tagging: thiophosphorylation, PNBM alkylation, anti-thiop [2]
Nc1ncnc2c1ncn2[C@@H]1O[C@H](COP(=O)(O)OP(=O)(O)OP(=O)(O)O)[C@@H](O)[C@H]1O [ATP]	conversion of ATP to ADP by the recombinant CDPK3, was higher in the presence of calcium	
Nc1ncnc2c1ncn2[C@@H]1O[C@H](COP(=O)(O)OP(=O)(O)OP(O)(O)=S)[C@@H](O)[C@H]1O [ATPγS]		ATPγS, a ATP analog, containing terminal thiophosphate group was used as the source
